Data: patent US20260007684A1, “AMIDE DERIVATIVES FOR INHIBITING NLRP3 AND USES THEREOF” (Ventus Therapeutics U.S., Inc., priority 2023, published 2026)

Each compound was assayed against human NLRP3 (Homo sapiens (Human), UniProt Q96P20) (assay: Scintillation Proximity (SPA) NLRP3 Assay: displacement of 3H-MCC950). Settings: SPA IC50, displacement of 3H-MCC950.
Format: binding

Chain of human NLRP3 (Q96P20 whole entry): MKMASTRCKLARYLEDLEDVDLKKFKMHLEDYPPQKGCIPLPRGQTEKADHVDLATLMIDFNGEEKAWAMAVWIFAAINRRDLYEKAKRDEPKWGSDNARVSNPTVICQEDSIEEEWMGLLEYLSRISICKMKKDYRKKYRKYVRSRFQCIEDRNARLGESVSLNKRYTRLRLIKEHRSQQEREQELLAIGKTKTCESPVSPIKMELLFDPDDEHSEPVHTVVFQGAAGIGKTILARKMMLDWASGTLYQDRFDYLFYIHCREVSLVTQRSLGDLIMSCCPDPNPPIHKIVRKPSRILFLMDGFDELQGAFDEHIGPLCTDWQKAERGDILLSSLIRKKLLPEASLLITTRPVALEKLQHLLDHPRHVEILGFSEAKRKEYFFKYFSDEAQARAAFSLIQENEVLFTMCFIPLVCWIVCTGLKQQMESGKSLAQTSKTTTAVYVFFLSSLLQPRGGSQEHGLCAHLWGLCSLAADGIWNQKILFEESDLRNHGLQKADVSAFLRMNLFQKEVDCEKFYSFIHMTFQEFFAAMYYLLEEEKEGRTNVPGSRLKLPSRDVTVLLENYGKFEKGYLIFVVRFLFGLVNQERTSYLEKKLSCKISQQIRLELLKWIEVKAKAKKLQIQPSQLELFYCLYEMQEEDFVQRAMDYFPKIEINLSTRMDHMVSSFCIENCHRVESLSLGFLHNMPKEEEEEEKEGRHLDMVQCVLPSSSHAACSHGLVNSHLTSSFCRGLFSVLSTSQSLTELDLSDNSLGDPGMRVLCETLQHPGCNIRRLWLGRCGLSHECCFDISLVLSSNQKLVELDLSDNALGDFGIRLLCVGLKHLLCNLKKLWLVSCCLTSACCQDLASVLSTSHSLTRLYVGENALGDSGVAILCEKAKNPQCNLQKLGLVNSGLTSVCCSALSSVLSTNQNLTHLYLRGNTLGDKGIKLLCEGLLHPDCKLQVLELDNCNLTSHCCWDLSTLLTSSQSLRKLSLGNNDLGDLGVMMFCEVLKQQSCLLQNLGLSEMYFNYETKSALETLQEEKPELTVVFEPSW

| Compound | IC50 |
| --- | --- |
| C[C@H]1C[C@H]2CC[C@@H]([C@H](NC(=O)C3(c4ccc(C(F)(F)F)cc4)CC3)C1)N2c1nnn[nH]1 [104G*, N-((1S,2R,4R,6R)-4-methyl-9-(1H-tetrazol-5-yl)-9-azabicyclo[4.2.1]nonan-2-yl)-1-(4-(trifluoromethyl)phenyl)cyclopropane-1-carboxamide] | 50 to 100 µM |
| O=C(N[C@@H]1CCC[C@H]2CC[C@@H]1N2c1nnn[nH]1)C1(c2ccc(C3CC3)cc2O)CC1 [93C*, N-((1S,2R,6S)-9-(1H-tetrazol-5-yl)-9-azabicyclo[4.2.1]nonan-2-yl)-1-(4-cyclopropyl-2-hydroxyphenyl)cyclopropane-1-carboxamide] | 10 to 50 µM |
| C[C@H]1C[C@H]2CC[C@@H]([C@@H](NC(=O)C3(c4ccc(C(F)(F)F)cc4)CC3)C1)N2c1nnn[nH]1 [104H*, N-((1S,2S,4R,6R)-4-methyl-9-(1H-tetrazol-5-yl)-9-azabicyclo[4.2.1]nonan-2-yl)-1-(4-(trifluoromethyl)phenyl)cyclopropane-1-carboxamide] | 50 to 100 µM |

Same assay, conditions: displacement of 3H-MCC950; read-out: SPA IC50

| Compound | IC50 |
| --- | --- |
| C[C@H]1C[C@@H](NC(=O)C2(c3ccc(C4CC4)c(F)c3O)CC2)[C@@H]2CC[C@H]1N2c1nnn[nH]1 [83C*, 1-(4-cyclopropy1-3-fluoro-2-hydroxyphenyl)-N-((1S,2R,4S,5R)-4-methy1-8-(1H-tetrazol-5-yl)-8-azabicyclo[3.2.1]octan-2-yl)cyclopropane-1-carboxamide] | > 100 µM |
| O=C(N[C@H]1C[C@H](C(F)(F)F)[C@H]2CC[C@@H]1N2c1nnn[nH]1)C1(c2ccc(Cl)cc2)CC1 (single isomer, unassigned) [103D*] | 10 to 50 µM |
| Cc1cc(C2(C(=O)N[C@@H]3C[C@H](C)CCN(c4nnn[nH]4)C3)CC2)ccc1C(F)(F)F (single isomer, unassigned) [6A*, N-(5-methyl-1-(1H-tetrazol-5-yl)azepan-3-yl)-1-(3-methyl-4-(trifluoromethyl)phenyl)cyclopropane-1-carboxamide] | 1 to 10 µM |
| COc1cc(F)c(C2(C(=O)N[C@H]3C[C@H](C)[C@H]4CC[C@@H]3N4c3nnn[nH]3)CC2)c(F)c1 (single isomer, unassigned) [102D*] | 10 to 50 µM |
| O=C(N[C@H]1CC[C@@H]2CC[C@H]1N2c1nnn[nH]1)C1(c2ccc(OC(F)(F)F)cc2O)CC1 [78B*, N-((1R,2S,5R)-8-(1H-tetrazol-5-yl)-8-azabicyclo[3.2.1]octan-2-yl)-1-(2-hydroxy-4-(trifluoromethoxy)phenyl)cyclopropane-1-carboxamide] | 1 to 10 µM |
| C[C@H]1CCN(c2nnn[nH]2)C[C@@H](NC(=O)C2(c3ccc(C(F)F)cc3)CC2)C1 (single isomer, unassigned) [5D*, 1-(4-(difluoromethyl)phenyl)-N-(5-methyl-1-(1H-tetrazol-5-yl)azepan-3-yl)cyclopropane-1-carboxamide] | 10 to 50 µM |
| C[C@H]1CCN(c2nnn[nH]2)C[C@@H](NC(=O)C2(c3ccc(OC(F)F)cc3F)CC2)C1 (single isomer, unassigned) [3D*] | 1 to 10 µM |
| C[C@H]1CCN(c2nnn[nH]2)C[C@@H](NC(=O)C2(c3ccc(C(F)F)cc3O)CC2)C1 (single isomer, unassigned) [30D*, 1-(4-(difluoromethyl)-2-hydroxyphenyl)-N-(5-methyl-1-(1H-tetrazol-5-yl)azepan-3-yl)cyclopropane-1-carboxamide] | 1 to 10 µM |
| C[C@@H]1CCN(c2nnn[nH]2)C[C@@H](NC(=O)C2(c3ccc(Cl)cc3)CC2)C1 (single isomer, unassigned) [12B*, 1-(4-chlorophenyl)-N-(5-methyl-1-(1H-tetrazol-5-yl)azepan-3-yl)cyclopropane-1-carboxamide] | 10 to 50 µM |
| C[C@H]1C[C@H](NC(=O)C2(c3ccc(C(F)F)cc3)CC2)[C@@H]2CC[C@H]1N2c1nnn[nH]1 [86D*, 1-(4-(difluoromethyl)phenyl)-N-((1S,2S,4S,5R)-4-methyl-8-(1H-tetrazol-5-yl)-8-azabicyclo[3.2.1]octan-2-yl)cyclopropane-1-carboxamide] | > 100 µM |
| C[C@@H]1CCN(c2nnn[nH]2)C[C@@H](NC(=O)C2(c3ccc(Cl)c(F)c3F)CC2)C1 (single isomer, unassigned) [4B*, 1-(4-chloro-2,3-difluorophenyl)-N-(5-methyl-1-(1H-tetrazol-5-yl)azepan-3-yl)cyclopropane-1-carboxamide] | 10 to 50 µM |
| C[C@H]1C[C@H](NC(=O)C2(c3ccc(C4CC4(F)F)cc3)CC2)[C@@H]2CC[C@H]1N2c1nnn[nH]1 (single isomer, unassigned) [37D*] | > 100 µM |
| C[C@H]1C[C@@H](NC(=O)C2(c3ccc(Cl)cc3)CC2)[C@@H]2CC[C@H]1N2c1nnn[nH]1 [80C*, 1-(4-chlorophenyl)-N-((1S,2R,4S,5R)-4-methyl-8-(1H-tetrazol-5-yl)-8-azabicyclo[3.2.1]octan-2-yl)cyclopropane-1-carboxamide] | > 100 µM |
| C[C@H]1CCN(c2nnn[nH]2)C[C@H](NC(=O)C2(c3ccc(C4CCC4)cc3)CC2)C1 (single isomer, unassigned) [8C*, 1-(4-cyclobutylphenyl)-N-(5-methyl-1-(1H-tetrazol-5-yl)azepan-3-yl)cyclopropane-1-carboxamide] | 10 to 50 µM |
| C[C@@H]1CCN(c2nnn[nH]2)C[C@@H](NC(=O)C2(c3cc(F)c(C(F)(F)F)cc3F)CC2)C1 (single isomer, unassigned) [7B*, 1-(2,5-difluoro-4-(trifluoromethyl)phenyl)-N-(5-methyl-1-(1H-tetrazol-5-yl)azepan-3-yl)cyclopropane-1-carboxamide] | 10 to 50 µM |
| C[C@H]1C[C@@H](NC(=O)C2(c3ccc(SC(F)F)cc3)CC2)[C@@H]2CC[C@H]1N2c1nnn[nH]1 [85C*, 1-(4-((difluoromethyl)thio)phenyl)-N-((1S,2R,4S,5R)-4-methyl-8-(1H-tetrazol-5-yl)-8-azabicyclo[3.2.1]octan-2-yl)cyclopropane-1-carboxamide] | > 100 µM |
| C[C@@H]1C[C@H](NC(=O)C2(c3ccc(Cl)cc3)CC2)[C@H]2CC[C@@H]1N2c1nnn[nH]1 [80B*, 1-(4-chlorophenyl)-N-((1R,2S,4R,5S)-4-methyl-8-(1H-tetrazol-5-yl)-8-azabicyclo[3.2.1]octan-2-yl)cyclopropane-1-carboxamide] | 10 to 50 µM |
| C[C@@H]1CC[C@H](NC(=O)C2(c3ccc(C(F)(F)F)cc3O)CC2)CN(c2nnn[nH]2)C1 [89D*, 1-(2-hydroxy-4-(trifluoromethyl)phenyl)-N-((3S,6R)-6-methyl-1-(1H-tetrazol-5-yl)azepan-3-yl)cyclopropane-1-carboxamide] | 1 to 10 µM |
| C[C@H]1C[C@@H](NC(=O)C2(c3ccc(C4CC4(F)F)cc3)CC2)[C@@H]2CC[C@H]1N2c1nnn[nH]1 (single isomer, unassigned) [37C*] | > 100 µM |

Further lines, results first:

| IC50 | Compound |
| --- | --- |
| 1 to 10 µM | C[C@H]1CC[C@H](NC(=O)C2(c3ccc(Cl)cc3)CC2)CN(c2nnn[nH]2)C1 (single isomer, unassigned) [36B*, 1-(4-chlorophenyl)-N-(6-methyl-1-(1H-tetrazol-5-yl)azepan-3-yl)cyclopropane-1-carboxamide] |
| 1 to 10 µM | Cc1ccc(C2(C(=O)N[C@H]3C[C@@H](C)CCN(c4nnn[nH]4)C3)CC2)c(O)c1 (single isomer, unassigned) [67D*] |
| 10 to 50 µM | C[C@H]1CCN(c2nnn[nH]2)C[C@@H](NC(=O)C2(c3ccc(C(F)(F)F)c(F)c3)CC2)C1 (single isomer, unassigned) [66D*] |
| 1 to 10 µM | C[C@@H]1CCN(c2nnn[nH]2)C[C@@H](NC(=O)C2(c3ccc(C4CC4)c(F)c3O)CC2)C1 (single isomer, unassigned) [32B*, 1-(4-cyclopropyl-3-fluoro-2-hydroxyphenyl)-N-(5-methyl-1-(1H-tetrazol-5-yl)azepan-3-yl)cyclopropane-1-carboxamide] |
| 50 to 100 µM | C[C@@H]1CCN(c2nnn[nH]2)C[C@@H](NC(=O)C2(c3ccc(C(F)(F)F)cc3)CC2)C1 (single isomer, unassigned) [61C*] |
| 10 to 50 µM | Cc1ccc(C2(C(=O)N[C@@H]3C[C@@H](C)CCN(c4nnn[nH]4)C3)CC2)c(O)c1 (single isomer, unassigned) [67C*] |
| > 100 µM | C[C@H]1CCN(c2nnn[nH]2)C[C@H](NC(=O)C2(c3ccc(C(F)(F)F)cc3F)CC2)C1 (single isomer, unassigned) [68C*] |
| 50 to 100 µM | C[C@H]1CCN(c2nnn[nH]2)C[C@H](NC(=O)C2(c3ccc(Br)cc3)CC2)C1 (single isomer, unassigned) [59C*] |
| 1 to 10 µM | C[C@H]1CCN(c2nnn[nH]2)C[C@@H](NC(=O)C2(c3ccc(OC(F)F)cc3)CC2)C1 (single isomer, unassigned) [58D*] |
| < 1 µM | C[C@H]1CCN(c2nnn[nH]2)C[C@@H](NC(=O)C2(c3ccc(C(F)(F)F)cc3O)CC2)C1 (single isomer, unassigned) [63D*] |
| 10 to 50 µM | C[C@H]1CCN(c2nnn[nH]2)C[C@H](NC(=O)C2(c3ccc(OC(F)F)cc3O)CC2)C1 (single isomer, unassigned) [70C*] |
| 1 to 10 µM | C[C@@H]1CCN(c2nnn[nH]2)C[C@@H](NC(=O)C2(c3ccc(C(F)(F)F)cc3F)CC2)C1 (single isomer, unassigned) [68B*] |
| < 1 µM | C[C@H]1CC[C@H](NC(=O)C2(c3ccc(C4CC4)cc3O)CC2)CN(c2nnn[nH]2)C1 (single isomer, unassigned) [91B*] |
| 10 to 50 µM | C[C@H]1CCN(c2nnn[nH]2)C[C@@H](NC(=O)C2(c3ccc(C4CC4)c(F)c3O)CC2)C1 (single isomer, unassigned) [32D*, 1-(4-cyclopropyl-3-fluoro-2-hydroxyphenyl)-N-(5-methyl-1-(1H-tetrazol-5-yl)azepan-3-yl)cyclopropane-1-carboxamide] |
| < 1 µM | Cc1ccc(C2(C(=O)N[C@H]3C[C@H](C)CCN(c4nnn[nH]4)C3)CC2)c(O)c1 (single isomer, unassigned) [67B*] |
| 50 to 100 µM | Cc1ccc(C2(C(=O)N[C@@H]3C[C@@H](C)CCN(c4nnn[nH]4)C3)CC2)cc1 (single isomer, unassigned) [71C*] |
| < 1 µM | C[C@H]1CC[C@@H](NC(=O)C2(c3ccc(Cl)cc3)CC2)CN(c2nnn[nH]2)C1 (single isomer, unassigned) [36A*, 1-(4-chlorophenyl)-N-(6-methyl-1-(1H-tetrazol-5-yl)azepan-3-yl)cyclopropane-1-carboxamide] |
